{"source": "patent US20100305139A1", "about": "“METHOD OF TREATING ABNORMAL LIPID METABOLISM” (MITSUBISHI TANABE PHARMA CORPORATION, priority 2005, published 2010)", "key": {"ZF rat": {"tested_on": "ZF rat", "assay": "Oral fat loading in ZF rat (abnormal lipid and glucose metabolism)", "type": "in vivo", "description": "Effect of Compound 3 on Abnormal Lipid Metabolism and Abnormal Glucose Metabolism after Oral Fat Loading in ZF Rat\nThe test was performed using male ZF rats. The rats were divided into two groups (10 rats/group). Compound 3 (1 mg/kg) or a 0.5% hydroxypropylmethylcellulose solution, which was a vehicle used to dissolve the compound, was administered by gavage to each of the rats. The administered volume was 2 mL/kg for both. At 15 min after the administration, a fat emulsion (main component was soybean oil, Intralipos; Otsuka Pharmaceutical Factory, Inc.) was orally loaded at the rate of 10 mL/kg. Blood samples were sequentially collected, and plasma TG concentration, free fatty acids concentration, glucose concentration and insulin concentration were measured."}, "fat-loaded ZF rat": {"tested_on": "fat-loaded ZF rat", "assay": "Oral glucose loading in fat-loaded ZF rat", "type": "in vivo", "description": "Effect of Compound 3 on Increase in Plasma Glucose after Oral Glucose Loading in Fat-Loaded ZF Rat\nThe test was performed using male ZF rats. The number of experimental examples was 10 for each group. […] The administered volume was 2 mL/kg for both. At 15 min after the administration, a fat emulsion (main component was soybean oil, Intralipos; Otsuka Pharmaceutical Factory, Inc.) was orally loaded at the rate of […]. Furthermore, at 6 hr after the administration of fat emulsion, a mixed carbohydrate solution of starch, sucrose and lactose (mixing ratio 6:3:1) was orally administered at 3.5 g/kg. The volume administered of each of the fat emulsion and the carbohydrate solution was 10 mL/kg. Blood samples were sequentially collected, and plasma glucose concentration was measured."}, "Wistar rat": {"tested_on": "Wistar rat", "assay": "Fasting blood sugar level in Wistar rat"}, "[1]": {"tested_on": "rats with type 2 diabetes", "details": "non-patent reference 7; cited from earlier work"}, "[2]": {"details": "ZF rat, summary statement, dose not given"}}, "data": [{"compound": "Br.Cc1cc(N2CCN([C@@H]3CN[C@H](C(=O)N4CCSC4)C3)CC2)n(-c2ccccc2)n1", "note": "[compound 1, 3-{(2S,4S)-4-[4-(3-methyl-1-phenyl-1H-pyrazol-5-yl)piperazin-1-yl]pyrrolidin-2-ylcarbonyl}thiazolidine hydrobromide]", "values": [{"measurement": "blood glucose increase after the fat loading", "setting": "ZF rat; [2]", "value": "suppresses"}, {"measurement": "increase in the plasma TG concentration after fat loading", "setting": "ZF rat; obese Zucker fatty rat having insulin resistance, summary statement, dose not given", "value": "suppresses"}, {"measurement": "blood glucose increase after glucose loading in an oral glucose loading test after fat loading", "setting": "fat-loaded ZF rat; [2]", "value": "markedly suppresses"}, {"measurement": "hypoglycemia", "setting": "Wistar rat; summary statement, unlike insulin secretagogue, dose not given", "value": "does not induce hypoglycemia"}]}, {"compound": "Br.Br.Br.Br.Br.Cc1cc(N2CCN([C@@H]3CN[C@H](C(=O)N4CCSC4)C3)CC2)n(-c2ccccc2)n1.Cc1cc(N2CCN([C@@H]3CN[C@H](C(=O)N4CCSC4)C3)CC2)n(-c2ccccc2)n1", "note": "[compound 3, 3-{(2S,4S)-4-[4-(3-methyl-1-phenyl-1H-pyrazol-5-yl)piperazin-1-yl]pyrrolidin-2-ylcarbonyl}thiazolidine 2.5 hydrobromide]", "values": [{"measurement": "increase in the plasma TG concentration after fat loading", "setting": "ZF rat; male ZF rats, 1 mg/kg by gavage 15 min before oral fat emulsion 10 mL/kg, change from value before fat loading (FIG. 1)", "value": "suppressed"}, {"measurement": "increase in the plasma free fatty acids concentration after fat loading", "setting": "ZF rat; male ZF rats, 1 mg/kg by gavage 15 min before oral fat emulsion 10 mL/kg, change from value before fat loading (FIG. 2)", "value": "suppressed"}, {"measurement": "increase in the plasma glucose concentration after fat loading", "setting": "ZF rat; male ZF rats, 1 mg/kg by gavage 15 min before oral fat emulsion 10 mL/kg, change from value before fat loading (FIG. 3)", "value": "suppressed"}, {"measurement": "plasma insulin concentration after fat loading", "setting": "ZF rat; male ZF rats, 1 mg/kg by gavage 15 min before oral fat emulsion 10 mL/kg, change from value before fat loading (FIG. 4)", "value": "transiently increased"}, {"measurement": "increase in the baseline plasma glucose concentration by fat loading", "setting": "fat-loaded ZF rat; male fat-loaded ZF rats, 1 mg/kg by gavage 15 min before fat emulsion (FIG. 5)", "value": "suppressed"}, {"measurement": "increase in the plasma glucose concentration after oral glucose loading", "setting": "fat-loaded ZF rat; male fat-loaded ZF rats, 1 mg/kg by gavage, mixed carbohydrate 3.5 g/kg orally at 6 hr after fat loading (FIG. 5)", "value": "suppressed"}, {"measurement": "fasting plasma glucose concentration", "setting": "Wistar rat; overnight-fasted male Wistar rats, gavage, dose of 100 mg/kg, maximum change from value before drug administration (FIG. 6)", "value": "no effect"}, {"measurement": "fasting insulin concentration", "setting": "Wistar rat; overnight-fasted male Wistar rats, gavage, dose of 100 mg/kg, maximum change from value before drug administration (FIG. 7)", "value": "no effect"}]}, {"compound": "CC(C)[C@H]1CC[C@H](C(=O)N[C@H](Cc2ccccc2)C(=O)O)CC1", "note": "[nateglinide, (−)-N-(trans-4-isopropylcyclohexylcarbonyl)-D-phenylalanine, reference compound]", "values": [{"measurement": "increase in blood lipid by fat loading", "setting": "[1]", "value": "suppresses"}, {"measurement": "plasma glucose concentration (hypoglycemia)", "setting": "Wistar rat; overnight-fasted male Wistar rats, gavage, nateglinide 10, 30, 100 or 300 mg/kg, maximum change from value before drug administration (FIG. 6)", "value": "induced hypoglycemia"}, {"measurement": "plasma insulin concentration", "setting": "Wistar rat; overnight-fasted male Wistar rats, gavage, nateglinide 10, 30, 100 or 300 mg/kg, maximum change from value before drug administration (FIG. 7)", "value": "increased"}]}]}
